US12599676B2, “Cytotoxic imidazo[1,2-A]pyridine compounds and their use in therapy” (MyricX Pharma Limited, priority 2022, dated 2026)

Experiments:
[1] = test system: BT474 breast cancer cells; experiment: Orthotopic BT474 breast cancer xenograft model; assay type: in vivo, NOD/SCID mice; conditions: 2.0 mg/kg IV, 2 days dosing then 5 day holiday (Group 6), stopped at day 13
Experimental: NOD/SCID mice were implanted with estrogen pellets (17β-estradiol, 60 day release, 0.36 mg) subcutaneously in the right flank one day before the tumour inoculation. On day −8 each mouse was then injected in the right mammary fat pad with 1×10^7 viable BT474 breast cancer cells resuspended in 0.2 mL of Phosphate Buffered Saline mixed with matrigel (1:1). Mice were assigned to treatment groups when tumour volumes averaged 149.78 mm^3 on study day 0. […] The study was terminated on Study Day 35.
Each group was comprised of 10 mice. Tumour volumes in mice were measured three times per week and tumour volume was calculated using the formula 0.5 (L×W^2). […] Statistical analyses were carried out on tumour readings for Groups 1, 2, 3, 4 and 5 up to Study Day 23 (after this point >50% of the animals within one of the study groups were lost; Group 2) using two-way ANOVA, or a Mixed-Effects model was fitted when values were missing from groups (PRISM GraphPad Software Inc.).
Tumour Growth Inhibition, ΔTGI %=((mean(C)−mean (CO))−(mean(T)−mean(TO)))/(mean(C)−mean(CO))×100% where T is the mean tumour volume on the measurement day and TO is the mean tumour volume of the treated group on Study Day 0. C is the mean tumour volume of the control Group 1 mice on the measurement day and CO is the mean tumour volume on Study Day 0.

[2] = Body weight in BT474 xenograft study; assay type: in vivo, NOD/SCID mice; conditions: trastuzumab or ADC Example 1 2.5 or 5 mg/kg; Example 12 2 mg/kg (Group 6)
Experimental: During the study, body weights were measured three times weekly for all animals. Animals were given Diet Gel for the entire duration on the study.

[3] = test system: MX-1 (human breast carcinoma); experiment: Cell cytotoxicity CellTiter-Glo, MX-1; assay type: cell-based; conditions: MX1
Experimental: (§1) Cells were seeded in 96-well microplates and treated with compounds or cisplatin (as a positive control) at 9 increasing concentrations in technical triplicate. […] On day 1, 90 μL of various cell suspensions with the number of cells ranging from 5000-8000 cells/well were seeded into wells of a 96-well plate (Corning). The number of cells to be seeded was previously determined. • 2. All 96-wells plates with cells were placed in an incubator overnight at 37° C. with 5% CO2. • 3. On day 2, cells were observed under a microscope ensuring the cells treated with vehicle control were in good condition. • 4. A dilution series of the test compounds and cisplatin were prepared at 10× the final concentrations required. 10 μL/well of 10× compound solution was added to the corresponding plates. The final volume was 100 μL/well for all the plates. Final DMSO concentration was 0.1%. • 5. On day 5 (after 72 hours of incubation), 50 μL of CTG reagent was added to each well. • 6. Contents were mixed for 5 minutes on an orbital shaker to facilitate cell lysis. • 7. The plate was allowed to incubate at room temperature for 10 minutes to stabilize luminescent signals. […]

[4] = test system: NCI-H1703 (human lung squamous cell carcinoma); experiment: Cell cytotoxicity CellTiter-Glo, NCI-H1703; assay type: cell-based
Experimental: as §1

[5] = test system: CA46 (human B cell lymphoma); experiment: Cell cytotoxicity CellTiter-Glo, CA46; assay type: cell-based
Experimental: as §1

[6] = test system: mouse hepatocytes; experiment: Hepatocyte metabolic stability, mouse; assay type: in vitro ADME
Experimental: Biological Example 6: Rat hepatocyte half life Certain Example compounds and Comparator Compound 1 were tested for metabolic stability in a metabolic assay using mouse- and rat-derived hepatocytes. Compounds having good metabolic stability in the assay are expected to be especially useful as agents for preventing and/or treating cancer, by having a long half-life in human patients.
Frozen pooled rat and mouse hepatocytes obtained from LifeTechnologies were thawed and purified according to the manufacturer's instructions. The test compound (4 mM) in DMSO was diluted with acetonitrile to provide a 100 μM sub-stock then further diluted with pH 7.4 Krebs-Henseleit buffer (supplemented with CaCl2, NaHCO3, HEPES, fructose and glycine) to provide a 2 μM working solution. 25 μL of working solution was incubated at 37° C., treated with 25 μL of rat or mouse hepatocyte suspension (containing 1×10^6 cells/mL) and incubated at 37° C. with 5% CO2 level at 95% relative humidity. Wells were incubated for an appropriate time (0, 15, 30, 45, 60 and 75 min) then quenched with 250 μL of acetonitrile containing reference standards diltiazem, 7-ethoxycoumarin and propranolol). The plates were shaken, sonicated for 5 min then cooled to 4° C. until all sampling was complete. All plates were centrifuged at 4000 rpm for 20 min to pellet the debris. 110 μL supernatant was diluted 110 μL water and quantitated using LC-MS/MS.
A linear regression curve was fitted to a plot of natural logarithm (In) of AUC against time. The T-half (min)=0.693/slope

[7] = test system: DU4475 (human breast carcinoma); experiment: Cell cytotoxicity CellTiter-Glo, DU4475; assay type: cell-based; conditions: DU-4475
Experimental: as §1

[8] = test system: HT1080 (human fibrosarcoma); experiment: Cell cytotoxicity CellTiter-Glo, HT1080; assay type: cell-based; conditions: HT-1080
Experimental: as §1

Structure (SMILES)	tumour size [1]	body weights compared to vehicle control [2]	IC50 [3] [nM]	IC50 [4] [nM]	IC50 [5] [nM]	mHeps t^1/2 [6] [min]	IC50 [7] [nM]	IC50 [8] [nM]
CNCc1cnc2ccc(-c3ccc(F)c(F)c3OCCc3c(C(O)C(C)(C)C)nn(C)c3C)cn12 (single isomer, unassigned) [Example 12, 1-(4-(2-(2,3-difluoro-6-(3-((methylamino)methyl)imidazo[1,2-a]pyridin-6-yl)phenoxy)ethyl)-1,5-dimethyl-1H-pyrazol-3-yl)-2,2-dimethylpropan-1-ol]	reduced tumour size	decreased significantly	–	–	–	–	–	–
Cc1c(CCOc2cc(Cl)ccc2-c2ccc3ncc(CCN)n3c2)c(C(=O)N(C)C)nn1C [Comparator Compound 1, 4-(2-{2-[3-(2-aminoethyl)imidazo[1,2-a]pyridin-6-yl]-5-chlorophenoxy}ethyl)-N,N,1,5-tetramethyl-1H-pyrazole-3-carboxamide, reference compound]	–	–	40	82	613	127.68	> 1000	6.4
